From patent US8198295B2, “Benzonaphthyridines” (Nycomed GmbH, priority 2002, dated 2012)
Counter-ions that a name gives are not always drawn. Like-named read-outs stand apart in the source and are kept apart here.

Assays:
[1] = target: T1, PDE3 (cGMP-inhibited), homogenates of human platelets (Homo sapiens, UniProt Q14432); assay: Inhibition of PDE isoenzymes: PDE3; format: biochemical
T1 construct: from tissue; host or cells: homogenates of human platelets
Protocol: (§1) The PDE activity was determined according to Thompson et al. (Adv Cycl Nucl Res 10: 69-92, 1979) with some modifications (Bauer and Schwabe, Naunyn-Schmiedeberg's Arch Pharmacol 311: 193-198, 1980). The test samples contained 20 mM Tris (pH 7.4), 5 mM MgCl2, 0.5 μM CAMP or CGMP, [^3H]cAMP or [^3H]cGMP (about 30 000 cpm/sample), the PDE isoenzyme-specific additives described in greater detail below, the Indicated concentrations of inhibitor and an aliquot of the enzyme solution in a total sample volume of 200 μl. Dilution series of the compounds according to the invention were prepared in DMSO and further diluted in the samples [1:100 (v/v)], to give the desired end concentration of the inhibitors at a DMSO concentration of 1% (vN), which for its part has only a minute effect on PDE activity.
(§2) After preincubation at 37° C. for 5 minutes, the reaction was started by addition of the substrate (CAMP or cGMP). The samples were incubated at 37° C. for a further 15 min. The reaction was terminated by addition of 50 μl 0.2 N HCl. After cooling on ice for 10 minutes and addition of 25 μg 5′-nucleotidase (snake venom from Crotalus atrox), the mixture was again incubated at 37° C. for 10 min and the samples were then applied to QAE Sephadex A-25 columns (sample volume 1 ml). The columns were eluted with 2 ml of 30 mM ammonium formate (pH 6.0). The radioactivity of the eluate was measured and corrected by the corresponding blank values (measured in the presence of denatured protein); the blank values were less than 5% of the total radioactivity. In no case did the proportion of hydrolyzed nucleotide exceed 30% of the original substrate concentration.
PDE3 (cGMP-inhibited) was investigated in homogenates of human platelets (see Schudt et al., Biochem Pharmacol 1991: 42, 153-162) using CAMP or cGMP as substrate.
(§3) The IC50 values were determined from the concentration-inhibition curves by nonlinear regression.

[2] = target: PDE4 (cAMP-specific), cytosol of human polymorphonuclear leukocytes (PMNL); assay: Inhibition of PDE isoenzymes: PDE4; format: biochemical; details: cAMP as substrate, motapizone (1 μM) present
Protocol: as §1, §2
PDE4 (cAMP-specific) was investigated in the cytosol of human polymorphonuclear leukocytes (PMNL) [isolated from leukocyte concentrates, see Schudt et al., Arch Pharmacol 1991: 344, 682-690] using CAMP as substrate. The PDE3 inhibitor motapizone (1 μM) was used to suppress the PDE3 activity emanating from contaminated platelets.
as §3

[3] = homogenates of human platelets, cAMP or cGMP as substrate, read-out: PDE3 [−log IC50, mol/l] (converted)

T1 sequence (Q14432 whole entry): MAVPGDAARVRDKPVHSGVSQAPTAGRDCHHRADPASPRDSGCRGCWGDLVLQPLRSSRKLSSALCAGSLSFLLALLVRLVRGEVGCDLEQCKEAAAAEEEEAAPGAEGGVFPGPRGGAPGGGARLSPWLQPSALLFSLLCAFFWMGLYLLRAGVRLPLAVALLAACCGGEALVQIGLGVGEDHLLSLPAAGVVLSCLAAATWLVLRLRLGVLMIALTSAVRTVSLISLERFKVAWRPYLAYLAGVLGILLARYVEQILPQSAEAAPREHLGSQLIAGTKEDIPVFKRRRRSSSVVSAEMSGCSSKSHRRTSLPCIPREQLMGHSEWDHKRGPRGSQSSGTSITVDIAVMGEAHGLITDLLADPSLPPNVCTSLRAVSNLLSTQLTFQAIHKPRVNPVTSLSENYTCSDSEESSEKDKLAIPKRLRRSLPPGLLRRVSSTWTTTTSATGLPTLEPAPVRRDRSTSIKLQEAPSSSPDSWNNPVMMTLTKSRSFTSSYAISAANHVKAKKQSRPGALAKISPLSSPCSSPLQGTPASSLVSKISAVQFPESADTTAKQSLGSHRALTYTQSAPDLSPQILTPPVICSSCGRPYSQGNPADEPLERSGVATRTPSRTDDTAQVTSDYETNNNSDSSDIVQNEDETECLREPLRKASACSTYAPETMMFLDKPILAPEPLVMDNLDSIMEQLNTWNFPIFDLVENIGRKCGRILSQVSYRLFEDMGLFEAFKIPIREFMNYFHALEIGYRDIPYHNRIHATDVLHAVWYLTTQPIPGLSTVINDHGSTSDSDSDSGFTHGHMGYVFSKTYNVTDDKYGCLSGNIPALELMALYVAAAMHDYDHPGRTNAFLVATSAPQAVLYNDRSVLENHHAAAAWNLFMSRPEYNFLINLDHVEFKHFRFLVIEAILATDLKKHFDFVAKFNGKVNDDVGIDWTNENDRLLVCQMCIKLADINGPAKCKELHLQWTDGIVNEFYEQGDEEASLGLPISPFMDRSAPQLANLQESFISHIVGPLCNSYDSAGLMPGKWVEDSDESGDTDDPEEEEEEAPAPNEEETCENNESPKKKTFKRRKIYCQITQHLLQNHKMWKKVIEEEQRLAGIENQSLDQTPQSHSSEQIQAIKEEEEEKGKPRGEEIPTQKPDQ

SMILES	IC50 [1] [µM]	PDE4 [−log IC50, mol/l] [2]	IC50 [1, 3] [µM]
CCOc1cc2c(cc1OC)C(c1ccc(C(=O)N(C(C)C)[C@@H](C)COC(=O)Cc3ccccc3)cc1)=N[C@@H]1CCN(C)C[C@H]21 [Compound 1, Phenyl-acetic acid (S)-2-({1-[4-((4aR,10bS)-9-ethoxy-8-methoxy-2-methyl-1,2,3,4a,10b-hexahydro-benzo[c][1,6]naphthyridin-6-yl)-phenyl]-methanoyl}-isopropyl-amino)-propyl ester]	0.0501	9.8 −log IC50, mol/l	
CCOc1cc2c(cc1OC)C(c1ccc(C(=O)N(C(C)C)C(C)CCOC(=O)c3ccccc3)cc1)=N[C@@H]1CCN(C)C[C@H]21 (stereo partly drawn) [Compound 6, Benzoic acid 3-({1-[4-((4aR,10bS)-9-ethoxy-8-methoxy-2-methyl-1,2,3,4,4a,10b-hexahydro-benzo[c][1,6]naphthyridin-6-yl)-phenyl]-methanoyl}-isopropyl-amino)-butyl ester]		9.2 −log IC50, mol/l	0.1
CCOc1cc2c(cc1OC)C(c1ccc(C(=O)N(C(C)C)[C@@H](C)COC(=O)c3cc(OC)cc(OC)c3)cc1)=N[C@@H]1CCN(C)C[C@H]21 [Compound 4]		9.3 −log IC50, mol/l	0.0398
CCOc1cc2c(cc1OC)C(c1ccc(C(=O)N(C(C)C)[C@@H](C)COC(=O)c3ccc(OC)c(OC)c3)cc1)=N[C@@H]1CCN(C)C[C@H]21 [Compound 3, 3,4-Dimethoxy-benzoic acid(S)2-({1-[4-((4aR,10bS)-9-ethoxy-8-methoxy-2-methyl-1,2,3,4,4a,10b-hexahdro-benzo[c][1,6]naphthyridin-6-yl)-phenyl]-methanoyl}-isopropyl-amino)-propyl ester]		9.4 −log IC50, mol/l	0.0316
CCOc1cc2c(cc1OC)C(c1ccc(C(=O)N(C(C)C)C(C)CCOC(=O)Cc3ccccc3)cc1)=N[C@@H]1CCN(C)C[C@H]21 (stereo partly drawn) [Compound 7, Phenyl-acetic acid 3-({1-[4((4aR,10bS)-9-ethoxy-8-methoxy-2-methyl-1,2,3,4,4a,10b-hexahydro-benzo[c][1,6]naphthyridin-6-yl)-phenyl]-methanoyl}-isopropyl-amino)-butyl ester]	0.0316	9.6 −log IC50, mol/l	
CCOc1cc2c(cc1OC)C(c1ccc(C(=O)N(C(C)C)[C@H](C)CO)cc1)=N[C@@H]1CCN(C)C[C@H]21 [Compound 12]		8.8 −log IC50, mol/l	0.0794
CCOc1cc2c(cc1OC)C(c1ccc(C(=O)N(C(C)C)C(C)CCOC(=O)Cc3ccc(OC)c(OC)c3)cc1)=N[C@@H]1CCN(C)C[C@H]21 (stereo partly drawn) [Compound 8, (3.4-Dimethoxy-phenyl)-acetic acid 3-({1-[4-((4aR,10bS)-9-ethoxy-8-methoxy-2-methyl-1,2,3,4,4a.10b-hexahydro-benzo[c][1,6]naphthyridin-6-yl)-phenyl]-methanoyl}-isopropyl-amino)-butyl ester]		9.6 −log IC50, mol/l	0.0501
CCOc1cc2c(cc1OC)C(c1ccc(C(=O)N(C(C)C)[C@@H](C)CO)cc1)=N[C@@H]1CCN(C)C[C@H]21 [Compound 11]		8.9 −log IC50, mol/l	0.0794
CCOc1cc2c(cc1OC)C(c1ccc(C(=O)N(C(C)C)[C@@H](C)COC(C)=O)cc1)=N[C@@H]1CCN(C)C[C@H]21 [Compound 5, Acetic acid (S-2-({1-[4-((4aR,10bS)-9-ethoxy-8-methoxy-2-methyl-1,2,3,4,4a,10b-hexahydro-benzo[c][1,6]naphthyyrdin-6-yl)-phenyl]-methanoyl}-isopropyl-amino)-propyl esterdihydrochloride]		9.2 −log IC50, mol/l	0.0794
CCOc1cc2c(cc1OC)C(c1ccc(C(=O)N(C(C)C)[C@@H](C)COC(=O)c3ccccc3)cc1)=N[C@@H]1CCN(C)C[C@H]21 [Compound 2]		9 −log IC50, mol/l	0.0251
